Data from patent US20220008359A1, “COMBINATION ANTI-CANCER PRODUCTS AND METHODS” (priority 2020, published 2022).
Marks after values point to notes of the source that are not given here.

Columns and labels:
CD8+ T cells = test: Viability and effects on CD8+ T cells after 72 hours of exposure; assay type: cell-based
Method: (§1) In vitro assays designed to assess the viability and effects of GZ17-6.02, GZ17-6.02.02, its metabolites as single agents, and the metabolites in combination effects of CD8+ T cells and CD56+ natural killer cells after 72 hours of exposure. Test agents used included 6.02 (77% Isovanillin+13% Harmine+10% Curcumin), 6.02.02 (77% Isovanillin+13% Harmine+8.5% Curcumin sulfate tetrabutylammonium salt+1.5% Curcumin β-D-glucuronide), Curcumin metabolites combination (85% Curcumin sulfate tetrabutylammonium salt+15% Curcumin β-D-glucuronide), Curcumin metabolites single agents (single agent Curcumin sulfate tetrabutylammonium salt, or single agent Curcumin 3-D-glucuronide).

[1] = test system: CD56+ natural killer cells; test: Viability and effects on CD56+ natural killer cells after 72 hours of exposure; assay type: cell-based
Method: as §1

[2] = test system: H1975 cells (wild type sensitive); test: In-cell immunostaining of protein expression and phosphorylation, H1975 wild type cells; assay type: cell-based, human; details: 1975 WT; 6 h; GZ17-6.02 2 mM final curcumin, osimertinib 100 nM; vehicle 100%
Method: (§2) […] Cells were fixed in place 6 hours after treatment and immunostaining of single cells performed to determine the levels of each protein/phosphor-protein (n=3+/−SD). * p<0.05 less than vehicle control; # p<0.05 greater than vehicle control.
(§3) Assessments of protein expression and protein phosphorylation. Multi-channel fluorescence HCS microscopes perform true in-cell western blotting. Three independent cultures derived from three thawed vials of cells of a tumor were sub-cultured into individual 96-well plates. Twenty-four hours after plating, the cells are transfected with a control plasmid or a control siRNA, or with an empty vector plasmid or with plasmids to express various proteins. After another 24 hours, the cells are ready for drug exposure(s). At various time-points after the initiation of drug exposure, cells are fixed in place using paraformaldehyde and using Triton X100 for permeabilization. Standard immunofluorescent blocking procedures are employed, followed by incubation of different wells with a variety of validated primary antibodies and subsequently validated fluorescent-tagged secondary antibodies are added to each well. The microscope determines the background fluorescence in the well and in parallel randomly determines the mean fluorescent intensity of 100 cells per well.

[3] = test system: afatinib-resistant (AR) H1975 cells; test: In-cell immunostaining of protein expression and phosphorylation, afatinib-resistant H1975 cells; assay type: cell-based, human; details: 1975 AR; 6 h; GZ17-6.02 2 mM final curcumin, osimertinib 100 nM; vehicle 100%
Method: as §2
Generation of erlotinib, afatinib and osimertinib-resistant cells. Cells were incubated in vitro with increasing concentrations of vehicle control or erlotinib or osimertinib until after ˜6 weeks the HCC827 and H1975 and H1650 cells grew with similar kinetics to sensitive cells in either erlotinib ([…]) or osimertinib ([…]), respectively. Afatinib-resistant cells were created in vivo by repeated high dosing until tumors disappeared and then regrew, as previously described.
as §3

H1650 cells (wild type) = test: In-cell immunostaining of protein expression and phosphorylation, H1650 wild type cells; assay type: cell-based, human; details: 1650 WT; 6 h; GZ17-6.02 2 mM final curcumin, osimertinib 100 nM; vehicle 100%
Method: as §3

H1975 cells = test: Trypan blue cell death assay, H1975 cells (wild type, afatinib- and osimertinib-resistant); assay type: cell-based, human; details: osimertinib-resistant H1975 and H1650 cells, 24 h
Method: Detection of cell death by trypan blue assay. Cells were treated with vehicle control or with drugs alone or in combination for 24 h. At the indicated time points cells were harvested by trypsinization and centrifugation. Cell pellets were resuspended in PBS and mixed with trypan blue agent. Viability was determined microscopically using a hemocytometer. Five hundred cells from randomly chosen fields were counted and the number of dead cells was counted and expressed as a percentage of the total number of cells counted.
H1650, wild type sensitive and afatinib resistant (AR) H1975 and erlotinib resistant (ER) HCC827 cells were treated with vehicle, erlotinib (500 nM), afatinib (500 nM), GZ17-6.02 (2 mM curcumin final) or the drugs in combination for 24 h. […] In a separate study, cells were treated with vehicle, osimertinib (100 nM), GZ17-6.02 (2 mM curcumin final) or the drugs in combination for 24 h.
Osimertinib-resistant H1975 and H1650 cells were generated as described and studied to determine if GZ17-6.02 interacts with pemetrexed to kill NSCLC cells. H1975 and H1650 cells (wild type sensitive and osimertinib resistant (OR)) were treated with vehicle, erlotinib (500 nM), afatinib (500 nM), osimertinib (100 nM), GZ17-6.02 (2 mM curcumin final) or the drugs in combination for 24 h. […]

## COc1cc(/C=C/C(=O)CC(=O)/C=C/c2ccc(O[C@@H]3O[C@H](C(=O)O)[C@@H](O)[C@H](O)[C@H]3O)c(OC)c2)ccc1O [Curcumin B-D-Glucuronide, Curcumin β-D-glucuronide]
CD8+ T cells; 0.03 μM
  CD8 + T Cells % of control: 124.35 % of control
CD8+ T cells; 0.3 μM
  CD8 + T Cells % of control: 114.54 % of control
CD8+ T cells; 3 μM
  CD8 + T Cells % of control: 118.58 % of control
CD8+ T cells; 30 μM
  CD8 + T Cells % of control: 110.23 % of control
[1]; 0.03 μM
  CD56 + NK Cells % of control: 98.08 % of control
[1]; 0.3 μM
  CD56 + NK Cells % of control: 100.22 % of control
[1]; 3 μM
  CD56 + NK Cells % of control: 93.81 % of control
[1]; 30 μM
  CD56 + NK Cells % of control: 95.28 % of control

## C=CC(=O)Nc1cc(Nc2nccc(-c3cn(C)c4ccccc34)n2)c(OC)cc1N(C)CCN(C)C [OSI]
[2]
  ATG5: 111%
  Beclin1: 113# %
  CD95: 102%
  CHOP: 109%
  ERBB1: 99%
  ERBB2: 100%
  ERBB3: 101%
  ERBB4: 99%
  ERK2: 99%
  FAS-L: 101%
  FLIP-s: 85* %
  GRP78: 119# %
  HDAC1: 97%
  HDAC2: 99%
  HDAC3: 96%
  HDAC4: 93%
  HDAC5: 100%
  HDAC6: 105%
  HDAC7: 103%
  HDAC8: 99%
  HDAC9: 98%
  HDAC10: 99%
  HDAC11: 96%
  IDO1: 99%
  JNK1/2: 101%
  MHCA: 96%
  NOXA: 100%
  ODC: 100%
  P-AKT T308: 81* %
  P-AMPKα T172: 101%
  P-ATG13 S318: 126# %
  P-ATM S1980: 100%
  P-B1: 73* %
  P-B2: 101%
  P-B3: 100%
  P-B4: 102%
  P-ERK1/2: 70* %
  P-JAK2: 83* %
  P-JNK1/2: 89%
  P-MEK1/2: 83* %
  P-NFκB S536: 100%
  P-PDGFRβ: 89%
  P-PERK T980: 109%
  P-SRC Y416: 95%
  P-SRC Y527: 102%
  P-STAT3 Y705: 92%
  P-STAT5 Y694: 88%
  P-TAZ S89: 114# %
  P-ULK1 S317: 105%
  P-ULK1 S757: 63* %
  P-YAP S127: 113# %
  P-c-KIT: 99%
  P-c-MET: 92%
  P-eIF2α S51: 109%
  P-mTOR S2448: 68* %
  P-mTOR S2481: 68* %
  P-β-catenin: 111%
  PD-L1: 99%
  PD-L2: 97%
  PDGFRβ: 100%
  PP1: 104%
  PUMA: 99%
  TAZ: 100%
  Total ERK2: 99%
  YAP: 99%
  c-KIT: 98%
  c-MET: 101%
  p70 S6K T389: 92%
  β-catenin: 98%
[3]
  ATG5: 105%
  Beclin1: 109%
  CHOP: 102%
  ERBB1: 100%
  ERBB2: 102%
  ERBB3: 101%
  ERBB4: 98%
  FLIP-s: 79* %
  GRP78: 103# %
  NOXA: 100%
  P-AKT T308: 86* %
  P-AMPKα T172: 102%
  P-ATG13 S318: 121# %
  P-ATM S1980: 101%
  P-B1: 76* %
  P-B2: 101%
  P-B3: 100%
  P-B4: 97%
  P-MEK1/2: 82* %
  P-PERK T980: 111%
  P-STAT3 Y705: 92%
  P-STAT5 Y694: 95%
  P-ULK1 S317: 99%
  P-ULK1 S757: 65* %
  P-eIF2α S51: 105%
  P-mTOR S2448: 66* %
  P-mTOR S2481: 71* %
  PP1: 112%
  PUMA: 98%
  Total ERK2: 100%
  p70 S6K T389: 99%
H1650 cells (wild type)
  ATG5: 106%
  Beclin1: 103%
  CD95: 100%
  CHOP: 106%
  ERBB1: 98%
  ERBB2: 94%
  ERBB3: 100%
  ERBB4: 100%
  ERK2: 100%
  FAS-L: 104%
  FLIP-s: 102%
  GRP78: 111%
  HDAC1: 99%
  HDAC2: 98%
  HDAC3: 98%
  HDAC4: 101%
  HDAC5: 99%
  HDAC6: 98%
  HDAC7: 99%
  HDAC8: 101%
  HDAC9: 100%
  HDAC10: 98%
  HDAC11: 100%
  IDO1: 100%
  JNK1/2: 104%
  MHCA: 103%
  NOXA: 101%
  ODC: 104%
  P-AKT T308: 90%
  P-AMPKα T172: 98%
  P-ATG13 S318: 115# %
  P-ATM S1980: 98%
  P-B1: 61* %
  P-B2: 97%
  P-B3: 96%
  P-B4: 96%
  P-ERK1/2: 82* %
  P-JAK2: 86* %
  P-JNK1/2: 91%
  P-MEK1/2: 97%
  P-NFκB S536: 83* %
  P-PDGFRβ: 93%
  P-PERK T980: 104%
  P-SRC Y416: 83* %
  P-SRC Y527: 105%
  P-STAT3 Y705: 95%
  P-STAT5 Y694: 98%
  P-TAZ S89: 101%
  P-ULK1 S317: 107%
  P-ULK1 S757: 81* %
  P-YAP S127: 102%
  P-c-KIT: 92%
  P-c-MET: 94%
  P-eIF2α S51: 114%
  P-mTOR S2448: 96%
  P-mTOR S2481: 87* %
  P-β-catenin: 102%
  PD-L1: 97%
  PD-L2: 97%
  PDGFRβ: 106%
  PP1: 103%
  PUMA: 100%
  TAZ: 101%
  Total ERK2: 100%
  YAP: 98%
  c-KIT: 100%
  c-MET: 98%
  p70 S6K T389: 99%
  β-catenin: 101%

## C#Cc1cccc(Nc2ncnc3cc(OCCOC)c(OCCOC)cc23)c1 [erlotinib, Erlotinib]
H1975 cells
  ability to enhance GZ17-6.02 killing: abolished

## C=CC(=O)Nc1cc(Nc2nccc(-c3cn(C)c4ccccc34)n2)c(OC)cc1N(C)CCN(C)C [osimertinib, Osimertinib]
H1975 cells
  ability to enhance GZ17-6.02 killing: abolished

## Curcumin sulfate tetrabutylammonium salt
CD8+ T cells; 0.03 μM
  CD8 + T Cells % of control: 107.62 % of control
CD8+ T cells; 0.3 μM
  CD8 + T Cells % of control: 170.61 % of control
CD8+ T cells; 3 μM
  CD8 + T Cells % of control: 154.26 % of control
CD8+ T cells; 30 μM
  CD8 + T Cells % of control: 143.23 % of control
[1]; 0.03 μM
  CD56 + NK Cells % of control: 104.14 % of control
[1]; 0.3 μM
  CD56 + NK Cells % of control: 103.40 % of control
[1]; 3 μM
  CD56 + NK Cells % of control: 110.77 % of control
[1]; 30 μM
  CD56 + NK Cells % of control: 107.76 % of control
